Here are results for two molecules from PMC12598698, “Synergistic Cancer Metabolic Therapy via Co-Delivery of 3‑Bromopyruvate and Temozolomide with a Supramolecular Shuttle” (ACS Applied Materials & Interfaces, 2025).

Where “and” joins values, the source holds several entries; their conditions need not be identical. Equal values may be shown once.

Experiment [1] relates to mitochondria isolated from rat brain. Kind of experiment: Mitochondrial respiration (Clark-type electrode). In kind it is biochemical. The settings on record: 5 μM, 8 min preincubation, 37 °C, ADP 300 μM. The protocol: Male Wistar rats (275–300 g) were obtained from Envigo RMS Srl (Udine, Italy). Animals were housed in a temperature-controlled environment (22 °C) under a 12:12 h light–dark cycle, with food and water available ad libitum. All procedures were conducted in strict accordance with European guidelines for the care and use of laboratory animals. Every attempt was made to reduce the suffering and discomfort experienced by the animals. Experimental protocols were approved by the Committee on the Ethics of Animal Experiments of the University of Naples Federico II (Italy) and the Italian Minister of Health (protocol number 776/2021-Pr). Rats were anesthetized by ip injection of tiopental (40 mg/100 body weight) and euthanized by decapitation. Brains were immediately excised, weighed, and processed for mitochondrial isolation, following the method described by Sumbalova et al. Briefly, brain tissues were immersed in ice-cold isolation buffer (330 mM sucrose, 10 mM Tris-HCl, 1 mM EDTA, and 2.5 g/L fatty acid-free BSA, pH 7.4) and homogenized using a Potter-Elvehjem homogenizer. […] Mitochondrial respiration rate was measured polarographically using a Clark-type electrode (Clark-type electrode, Oxygraph system, Hansatech Instruments Ltd., UK). […]

For experiment [2] the test system is unchanged. Put plainly: EPR analysis of ROS production upon mitochondria respiration (Mito-TEMPO). In kind it is biochemical. The settings on record: succinate without rotenone, 37 °C, 8 min preincubation. How it is done: Investigation of the redox status in mitochondria was performed using the Mito-TEMPO paramagnetic spin probe, which is a mitochondria-penetrating nitroxide radical that allows evaluation of the level of ROS (mainly superoxides) produced during respiration. The same protocol as described in the previous subsection was followed with the addition of Mito-TEMPO (0.1 mM) during the preincubation with BrP, NF, or NF-Br. In this case succinate was used as a respiratory substrate in the absence of rotenone in order to allow the formation of ROS via the electron reverse from complex II to complex I. At predetermined time intervals, 20 μL of each sample was loaded into glass capillaries and flame-sealed. To guarantee thermal stability, the sealed capillaries were subsequently placed inside a standard 4 mm quartz EPR-sample tube that had been lightly lubricated with silicone oil. As described in a previous subsection, a 9 GHz Bruker Elexsys E500 spectrometer was used to record the EPR spectra. During acquisition, the sample temperature was maintained at 37 °C by directing thermostated nitrogen gas through a quartz dewar. Mito-TEMPO EPR signals were analyzed by double integration using the Bruker software package.

The subject of experiment [3] is U-87 MG cells (2D). Kind of experiment: 2D U-87 cell viability assay (PrestoBlue). Format: cell-based, human. The protocol:
Cells were seeded in 48-well plates at approximately 3 × 10^4 cells per well in DMEM culture medium supplemented with 10% FBS. U-87 MG cell lines from human brain were initially cultured in 25 cm^2 flasks, using DMEM supplemented with FBS 10%, P/S 2%, and L/GLUT 2 mM, in a humidified incubator (37 °C/5% CO2). After 24 h, once cells adhered, they were treated in parallel with NF-BrP (BrP, 5 μM), NF-BrP-TMZ (BrP and TMZ, 5 μM), and BrP at concentrations of 30, 50, 100, and 150 μM, for 24, 48, and 72 h. Untreated cells served as the controls. All experiments were performed under standard cell culture conditions (95% relative humidity, 5% CO2, 37 °C). At the end of each incubation time, cell viability was assessed using the PrestoBlue assay (ThermoFisher Scientific), according to the manufacturer’s protocol. Cells were incubated with the reagent for 1 h, and absorbance was obtained at 570 nm with 600 nm as the reference wavelength with a BioTek Synergy HT microplate reader. Results are expressed as the percentage of viable cells relative to the untreated controls.

In experiment [4] the test system is U-87 MG cells (2D). The settings on record: highest tested concentration 250 μM, 72 h; ref previous work; cited from earlier work. The protocol: Combining drugs with different mechanisms of action targeting distinct cellular pathways can help overcome resistance and produce a synergistic effect, thereby enhancing the overall anticancer efficacy. The combined cytotoxic effect of the nanofiber NF-TMZ-BrP, cofunctionalized with BrP and TMZ (both at 5 μM), was evaluated in 2D and 3D-U87 cells at 24, 48, and 72 h. […] After 72 h, the cytotoxic effect became more pronounced, with appro ...

For `O=C(O)C(=O)CBr` [BrP, 3-bromopyruvic acid], in experiment [1], the “inhibition of ADP-stimulated respiration, pyruvate + malate” value is listed as “about 50%” and the “inhibition of ADP-stimulated respiration, succinate + rotenone” value is listed as “about 50%”. Moreover, the “effect on mitochondrial ROS production (slope of mito-TEMPO decay)” value in experiment [2] is given as “reduces the slope in a dose-dependent manner”. Further, the “reduction of U-87 cell viability by free BrP at 150 μM” value in experiment [3] (free drug 150 μM, prolonged exposure) was “no more than 20%”. The “concentrations at which a decrease in U-87 cell viability is observed” value in experiment [3] (free drug, 24, 48 and 72 h) is 50 to 150 µM and > 50 µM.
Take `Cn1nnc2c(C(N)=O)ncn2c1=O` [TMZ, temozolomide]: the “reduction in cell viability by free TMZ” value in experiment [4] was 40%.
